Assay results reported in patent publication US20080312140A1, “Compositions and Methods for Preventing or Treating Hiv Infection” (priority 2005, published 2008).
Read-outs that look alike come from different tables or passages of the source. No end group written: not given here.

System: infection of CD4+ human cells (CD4 expressing Hela P4 cells) by HIV-1
Assay type: cell-based
Settings: for IC50: FIG. 3; for relative infection inhibition activity within the peptide set: peptides assayed at 100 μg/ml, FIG. 2 / FIG. 6
Description: Biological Activity Results of C2 peptide analogs Cell Infection Inhibition Assay The assay consisted of CD4 expressing Hela P4 cells containing the […] reporter gene placed downstream the HIV-LTR promotor. These cells, were seeded 24 hours prior to viral infection at a density of 5×10^5 […] in 24 well culture plates (TPP model by Beyneix). 50 μL of virus solution prepared from CEM infected cells' supernatant, were incubated for 1 hour with the assayed peptides at the required concentrations, at 4° C. 10 μg of anti CD4 monoclonal antibodies 13B8.2 or Leu3A were used as control. After incubation the virus solution was diluted to a total volume of 1 ml and was added to the Hela P4 cells. The cells were incubated at these conditions for 3 days after which their infection rate was assayed according to the […] activity in the cells extract.
The cells were washed well, harvested and disintegrated in a buffer containing 60 mM Na2HPO4, 40 mM NaH2PO4, 10 mM KCl, 1 mM MgSO4, 50 mM β-mercaptoethanol, 2.5 mM EDTA, 0.125% NP40, 0.125% triton, 20% glycerol, 0.2 mM PMSF and 100 U/ml approtinin. The cells extract was cleaned by centrifuge at 4° C. for 15 min at 13,000 rpm. β-galactosidase activity was determined by incubation of 150 μL of total cell extract at 37° C. for 2 hours in the presence of 6 mM ONPG (O-Nitrophenyl-β-D-galactopyranoside) in a buffer containing 80 mM Na2HPO4, 1 mM β-mercaptoethanol and 10 mMMgCl2, followed by absorption measurement at 410 nm. The β-galactosidase activity was normalized according to the total protein quantity in the assay.
This figure includes, for comparison, the inhibition of the lead peptide C2-1, as determined in the cell infection inhibition assay.

[1] = average of peptides C2-2 and C2-3, Hela P4 cells, read-out: average IC50 value

| Compound | IC50 (CD4 expressing Hela P4 cells, several concentrations, read-out: IC50 (infection inhibition)) | relative infection inhibition activity within the peptide set | IC50 [1] | inhibition of infection (C3 peptides, FIG. 6: assayed at 100 μg/ml, mean of 3 assays, text: C3-25 at 100 μM) |
| --- | --- | --- | --- | --- |
| N=C(N)NCCC[C@@H]1NC(=O)CCC(=O)N[C@@H](CCC(N)=O)C(=O)NCC(=O)N[C@@H](CO)C(=O)N[C@@H](Cc2ccccc2)C(=O)N(CC(N)=O)CCNC1=O [Peptide C2-1] | 33 µM | most active |  |  |
| N=C(N)NCCC[C@@H]1NC(=O)CCCC(=O)N[C@@H](CCC(N)=O)C(=O)NCC(=O)N[C@@H](CO)C(=O)N[C@@H](Cc2ccccc2)C(=O)N(CC(N)=O)CCNC1=O [Peptide C2-2] |  | most active | 81 ± 2 µM |  |
| N=C(N)NCCC[C@@H]1NC(=O)CCCCC(=O)N[C@@H](CCC(N)=O)C(=O)NCC(=O)N[C@@H](CO)C(=O)N[C@@H](Cc2ccccc2)C(=O)N(CC(N)=O)CCNC1=O [Peptide C2-3] |  | most active | 81 ± 2 µM |  |
| C3-19: backbone cyclic C3 peptide of Scheme 1 (SEQ ID NO:7) (RQGSGF; also: backbone cyclic) [Peptide C3-19] |  |  |  | 64±12% |
